Results taken from publication PMC9495681, “Examining Topoisomers of a Snake-Venom-Derived Peptide for Improved Antimicrobial and Antitumoral Properties” (Biomedicines, 2022).
Converted amounts (≈) assume the structure as drawn. Peptide text beside a SMILES is read from it.

Assays:
[1] = tested on: A. baumannii (ATCC 15308); experiment: Minimal inhibitory concentration (MIC), broth microdilution; format: cell-based; conditions: Mueller Hinton Broth, 5 × 10^5 CFU/mL, 0.04% BSA and 0.002% acetic acid, 20–22 h at 37 °C, duplicate
Procedure: (§1) Assays were performed on three Gram-negative bacteria: E. coli (BW25113, Coli Genetic Stock Center), A. baumannii (ATCC 15308, CECT, Valencia, Spain), and Pseudomonas sp. (ATCC15915, CECT). The minimal inhibitory concentration (MIC) of each peptide was determined as described by Wiegand et al.. Peptide stocks in water were added to polypropylene 96-well plates (Greiner, Frickenhausen, Germany) and serially diluted from 100 to 0.2 μM. Fresh bacteria were incubated at 37 °C in Mueller Hinton Broth (MHB, Condalab, Torrejón de Ardoz, Spain) up to exponential growth and diluted to a final inoculum of 5 × 10^5 CFU/mL. BSA and acetic acid at 0.04% (w/v) and 0.002% (v/v) final concentration, respectively, were added to avoid peptide self-aggregation. Plates were incubated for 20–22 h at 37 °C. Each peptide was tested in duplicate. MIC values were the lowest peptide concentration where bacterial growth was not detected.

[2] = tested on: Pseudomonas sp. (ATCC15915); experiment: as above; format: cell-based; conditions: Mueller Hinton Broth, 5 × 10^5 CFU/mL, 0.04% BSA and 0.002% acetic acid, 20–22 h at 37 °C, duplicate
Procedure: as §1

HeLa S3 = experiment: Peptide cytotoxicity (Cell Titer Blue viability); format: cell-based, Human; conditions: peptide treatment 24 h, medium with 2% FBS, Cell Titer Blue fluorescence, triplicate
Description: (§2) Human HeLa S3 (cervix epithelial carcinoma), leukemia Jurkat E6.1 (T-cell lineage), U937 (histiocytic lymphoma), THP-1 (acute monocytic leukemia), and 1BR3G human fibroblasts were obtained from the Cell Lines Repository of the Institut Municipal d’Investigació Medica (Barcelona, Spain). BxPC3 (pancreas adenocarcinoma), A549 (lung carcinoma), SH-Sy5Y (neuroblastoma), Panc1 (epithelioid carcinoma), 786-O (renal cell adenocarcinoma), and HT29 (colorectal adenocarcinoma) were obtained from the Integrative Biomedical Materials and Nanomedicine lab at UPF (Barcelona, Spain). HeLa S3, Jurkat E6.1, U937, THP-1, Panc1, and 786-O were cultured in Roswell Park Memorial Institute medium (RPMI) supplemented with 10% fetal bovine serum (FBS) and 1% penicillin/streptomycin solution and maintained at 37 °C in a humidified atmosphere with 5% of CO2. 1BR3G, BxPC3, A549, and HT29 were cultured in Dulbecco’s Modified Eagle’s Medium (DMEM) supplemented with 10% FBS and 1% penicillin/streptomycin solution and maintained at 37 °C in a humidified atmosphere with 5% of CO2. SH-Sy5Y was cultured in DMEM supplemented with 15% FBS and 1% penicillin/streptomycin and maintained at 37 °C in a humidified atmosphere with 5% of CO2. Cultures were maintained at 10^5–10^6 cell/mL densities. For 1BR3G human fibroblasts, BxPC3, A549, SH-Sy5Y, Panc1, 786-O, and HT29 were split every time they reached 80–90% of confluence after harvesting with PBS and trypsin.
(§3) About 60,000 cells were added to different microfuge tubes containing 2-fold serial dilution of the peptide, with a final concentration in the range between 0.1–100 μM in RPMI containing 2% of FBS. After 30 min incubation at 37 °C and 5% of CO2, […] of medium containing approximately 10,000 treated cells were transferred to a 96-well plate. Then, 15 μL of Cell Titer Blue dye (Promega, Madison, WI, USA) was added, and plates were reincubated for 24 h. Fluorescence was read at 4 and 24 h after dye addition in a Synergy HTX (BioTek, Winooski, VT, USA) reader, with λexc = 560 nm and λem = 620 nm. In the case of adherent cultures, 5000 cells/well were seeded in 96-well plates. After 24 h incubation at 37 °C and 5% of CO2, the medium was removed, and a new medium with 2% of FBS containing the various 2-fold dilution of the peptides was added. After a further 30 min, 15 μL of Cell Titer Blue dye was added to each well, and the measurement was done as above. Relative viability was calculated relative to a cell with only 2% FBS in the corresponding medium as a control (100% viability). All assays were conducted in triplicate.

Jurkat E6.1 = experiment: Peptide cytotoxicity (Cell Titer Blue viability); format: cell-based, Human; conditions: peptide treatment 24 h, medium with 2% FBS, Cell Titer Blue fluorescence, triplicate
Description: as §2, §3

SH-Sy5Y (neuroblastoma) = experiment: Peptide cytotoxicity (Cell Titer Blue viability); format: cell-based, Human; conditions: peptide treatment 24 h, medium with 2% FBS, Cell Titer Blue fluorescence, triplicate
Description: as §2, §3

THP-1 = experiment: Peptide cytotoxicity (Cell Titer Blue viability); format: cell-based, Human; conditions: peptide treatment 24 h, medium with 2% FBS, Cell Titer Blue fluorescence, triplicate
Description: as §2, §3

U937 = experiment: Peptide cytotoxicity (Cell Titer Blue viability); format: cell-based, Human; conditions: peptide treatment 24 h, medium with 2% FBS, Cell Titer Blue fluorescence, triplicate
Description: as §2, §3

[3] = tested on: BxPC3, A549, Panc1, 786-O, and HT29; experiment: Peptide cytotoxicity (Cell Titer Blue viability), non-leukemia cell lines of Figure 2; format: cell-based, Human; conditions: peptide treatment 24 h, triplicate, read-out: IC50, other cancer cell lines (non-leukemia, other than SH-Sy5Y)
Description: Human HeLa S3 (cervix epithelial carcinoma), leukemia Jurkat E6.1 (T-cell lineage), U937 (histiocytic lymphoma), THP-1 (acute monocytic leukemia), and 1BR3G human fibroblasts were obtained from the Cell Lines Repository of the Institut Municipal d’Investigació Medica (Barcelona, Spain). BxPC3 (pancreas adenocarcinoma), A549 (lung carcinoma), SH-Sy5Y (neuroblastoma), Panc1 (epithelioid carcinoma), 786-O (renal cell adenocarcinoma), and HT29 (colorectal adenocarcinoma) were obtained from the Integrative Biomedical Materials and Nanomedicine lab at UPF (Barcelona, Spain). HeLa S3, Jurkat E6.1, U937, THP-1, Panc1, and 786-O were cultured in Roswell Park Memorial Institute medium (RPMI) supplemented with 10% fetal bovine serum (FBS) and 1% penicillin/streptomycin solution and maintained at 37 °C in a humidified atmosphere with 5% of CO2. […]
About 60,000 cells were added to different microfuge tubes containing 2-fold serial dilution of the peptide, with a final concentration in the range between 0.1–100 μM in RPMI containing 2% of FBS. […] Fluorescence was read at 4 and 24 h after dye addition in a Synergy HTX (BioTek, Winooski, VT, USA) reader, with λexc = 560 nm and λem = 620 nm. […] Relative viability was calculated relative to a cell with only 2% FBS in the corresponding medium as a control (100% viability). […]

E. coli (BW25113) = experiment: Minimal inhibitory concentration (MIC), broth microdilution; format: cell-based; conditions: Mueller Hinton Broth, 5 × 10^5 CFU/mL, 0.04% BSA and 0.002% acetic acid, 20–22 h at 37 °C, duplicate
Procedure: as §1

1BR3G human fibroblasts = experiment: Peptide cytotoxicity (Cell Titer Blue viability); format: cell-based; conditions: 24 h treatment, medium with 2% FBS, Cell Titer Blue fluorescence, triplicate
Description: as §2, §3

human erythrocytes = experiment: Hemolytic activity; format: cell-based; conditions: up to 100 μM; 4% (v/v) human erythrocytes in PBS, 30 min at 37 °C, OD 540 nm, triplicate
Procedure: Fresh human blood (10 mL) was collected in EDTA tubes and centrifuged at 1000× g for 10 min at 4 °C. After plasma removal, the pellet containing the erythrocytes was washed 3× with phosphate-buffered saline (PBS) and resuspended to an 8% (v/v) suspension in PBS. Then, 100 μL of the suspension was added to a final concentration of 4% (v/v) to microfuge tubs containing 2-fold serially diluted peptides (0.2–100 μM). The suspension was incubated for 30 min at 37 °C with agitation, then centrifuged for 2 min at 1000× g. The supernatant was transferred to 96-well plates, and hemoglobin was measured by OD at 540 nm in a Synergy HTX plate reader (BioTek). Positive and negative controls were 1% (v/v) Triton X-100 and untreated erythrocytes (4% v/v in PBS), respectively. Measurements were done in triplicate. Hemolysis was calculated as:(2) % Hemolysis=[OD540peptide]−[OD540PBS]/[OD540Triton]−[OD540PBS]·100

SMILES	MIC A. baumannii [1]	MIC Pseudomonas sp. [2]	IC50 (HeLa S3)	IC50 (Jurkat E6.1)	IC50 (SH-Sy5Y (neuroblastoma))	IC50 (THP-1)	IC50 (U937)	IC50 [3]	MIC E. coli (E. coli (BW25113))	IC50 (cell viability) human fibroblast 1BR3G (1BR3G human fibroblasts)	Hemolytic effect (in words) (human erythrocytes)
CC[C@H](C)[C@H](NC(=O)[C@H](CCCCN)NC(=O)[C@H](CCCCN)NC(=O)[C@H](CC(C)C)NC(=O)[C@H](CCCNC(=N)N)NC(=O)[C@H](CCCCN)NC(=O)[C@H](CCCCN)NC(=O)[C@@H](NC(=O)[C@H](CO)NC(=O)[C@H](CCCCN)NC(=O)[C@H](CCCCN)NC(=O)[C@@H](NC(=O)[C@H](CCCCN)NC(=O)[C@H](CCCCN)NC(=O)[C@H](Cc1ccccc1)NC(=O)[C@H](Cc1ccccc1)NC(=O)[C@H](CCCCN)NC(=O)[C@H](CCCCN)NC(=O)[C@H](Cc1ccccc1)NC(=O)[C@H](CCCNC(=N)N)NC(=O)[C@@H](N)CCCCN)C(C)C)C(C)C)C(=O)N[C@@H](Cc1ccccc1)C(=O)N[C@@H](CCCCN)C(=O)N[C@@H](CCCCN)C(=O)N1CCC[C@H]1C(=O)N[C@@H](CCSC)C(=O)N[C@H](C(=O)N[C@H](C(=O)NCC(=O)N[C@H](C(=O)N[C@H](C(=O)N[C@H](C(=O)N1CCC[C@H]1C(=O)N[C@@H](Cc1ccccc1)C(N)=O)[C@@H](C)CC)[C@@H](C)O)C(C)C)[C@@H](C)CC)C(C)C [Ctn] (H-KRFKKFFKKVKKSVKKRLKKIFKKPMVIGVTIPF-NH2)	0.78 µM (≈ 3.24 µg/mL)	<0.05 µM	~3470 nM	< 1000 nM	~2610 nM	< 1000 nM	< 1000 nM	≥ 10000 nM	–	–	–
CC[C@H](C)[C@H](NC(=O)[C@H](CCCCN)NC(=O)[C@H](CCCCN)NC(=O)[C@H](CC(C)C)NC(=O)[C@H](CCCNC(=N)N)NC(=O)[C@H](CCCCN)NC(=O)[C@@H](N)CCCCN)C(=O)N[C@@H](Cc1ccccc1)C(=O)N[C@@H](CCCCN)C(=O)N[C@@H](CCCCN)C(=O)N1CCC[C@H]1C(=O)N[C@@H](CCSC)C(=O)N[C@H](C(=O)N[C@H](C(=O)NCC(=O)N[C@H](C(=O)N[C@H](C(=O)N[C@H](C(=O)N1CCC[C@H]1C(=O)N[C@@H](Cc1ccccc1)C(N)=O)[C@@H](C)CC)[C@@H](C)O)C(C)C)[C@@H](C)CC)C(C)C [Ctn[15-34]] (H-KKRLKKIFKKPMVIGVTIPF-NH2)	0.78 µM (≈ 1.85 µg/mL)	<0.05 µM	–	–	–	–	–	–	<0.005 µM	≈ 14.32 μM	totally nonhemolytic
